In brackets after ≈: the same amount, converted by molar mass.
Columns and labels:
Type in all cases: functional
Staphylococcus aureus [1] = experiment: Antimicrobial activity against Staphylococcus aureus MTCC 96 incubated for 24 hrs by well diffusion assay; details: MTCC 96, 24 h
Raoultella planticola = experiment: Antimicrobial activity against Klebsiella planticola MTCC 530 incubated for 24 hrs by well diffusion assay; details: MTCC 530, 24 h
[2] = Antioxidant activity assessed as DPPH radical scavenging activity at 0.5 mM incubated for 40 mins in dark condition
Staphylococcus aureus [3] = experiment: Antimicrobial activity against Staphylococcus aureus MLS-16 […] incubated for 24 hrs by well diffusion assay
Candida albicans = experiment: Antimicrobial activity against Candida albicans MTCC 3017 incubated for 24 hrs by well diffusion assay; details: MTCC 3017, 24 h
Bacillus subtilis = experiment: Antimicrobial activity against Bacillus subtilis MTCC 121 incubated for 24 hrs by well diffusion assay; details: MTCC 121, 24 h
Pseudomonas aeruginosa = experiment: Antimicrobial activity against Pseudomonas aeruginosa MTCC 2453 incubated for 24 hrs by well diffusion assay; details: MTCC 2453, 24 h
Micrococcus luteus = experiment: Antimicrobial activity against Micrococcus luteus MTCC 2470 incubated for 24 hrs by well diffusion assay; details: MTCC 2470, 24 h
[4] = Antioxidant activity assessed as DPPH radical scavenging activity at 2 mM incubated for 40 mins in dark condition
[5] = Antioxidant activity assessed as DPPH radical scavenging activity at 1 mM incubated for 40 mins in dark condition
Escherichia coli = experiment: Antimicrobial activity against Escherichia coli MTCC 739 incubated for 24 hrs by well diffusion assay; details: MTCC 739, 24 h

SMILES | MIC (Staphylococcus aureus [1]) | MIC (Raoultella planticola) | Activity [2] | MIC (Staphylococcus aureus [3]) | MIC (Candida albicans) | MIC (Bacillus subtilis) | MIC (Pseudomonas aeruginosa) | MIC (Micrococcus luteus) | Activity [4] | Activity [5] | MIC (Escherichia coli)
CC(C)OC(=O)N1c2c(c(=O)oc3ccccc23)N[C@H](c2ccc([N+](=O)[O-])cc2)N1C(=O)OC(C)C | > 100 µg/mL | > 100 µg/mL | 3.27% | > 100 µg/mL | > 100 µg/mL | > 100 µg/mL | > 100 µg/mL | > 100 µg/mL | 14.6% | 7.06% | > 100 µg/mL
CCOc1ccc([C@H]2Nc3c(c4ccccc4oc3=O)[C@@H]3OCCC[C@H]23)cc1 | > 100 µg/mL | > 100 µg/mL |  | > 100 µg/mL | > 100 µg/mL | > 100 µg/mL | > 100 µg/mL | > 100 µg/mL |  |  | > 100 µg/mL
O=C(O)c1cn(C2CC2)c2cc(N3CCNCC3)c(F)cc2c1=O [CIPROFLOXACIN] | 0.58 µg/mL (≈ 1.75 µM) | 0.58 µg/mL (≈ 1.75 µM) |  | 0.58 µg/mL (≈ 1.75 µM) |  | 0.58 µg/mL (≈ 1.75 µM) | 0.58 µg/mL (≈ 1.75 µM) | 0.58 µg/mL (≈ 1.75 µM) |  |  | 0.58 µg/mL (≈ 1.75 µM)
O=c1oc2ccccc2c2c1N[C@H](c1ccc(Cl)cc1)[C@H]1CCCO[C@@H]21 | > 100 µg/mL | > 100 µg/mL |  | > 100 µg/mL | > 100 µg/mL | > 100 µg/mL | > 100 µg/mL | > 100 µg/mL |  |  | > 100 µg/mL
CC(C)OC(=O)N1c2c(c(=O)oc3ccccc23)N[C@H](c2ccc(C#N)cc2)N1C(=O)OC(C)C | > 100 µg/mL | > 100 µg/mL |  | > 100 µg/mL | > 100 µg/mL | > 100 µg/mL | > 100 µg/mL | > 100 µg/mL | 3.14% | 0.88% | > 100 µg/mL
O=c1oc2ccccc2c2c1N[C@H](c1ccc([N+](=O)[O-])cc1)[C@H]1CCCO[C@@H]21 | > 100 µg/mL | > 100 µg/mL |  | > 100 µg/mL | > 100 µg/mL | > 100 µg/mL | > 100 µg/mL | > 100 µg/mL |  |  | > 100 µg/mL
CCOC(=O)C1=C(C(=O)OCC)[C@@H](c2cc(O)ccc2O)Nc2c1c1ccccc1oc2=O | > 100 µg/mL | > 100 µg/mL | 2.43% | > 100 µg/mL | > 100 µg/mL | > 100 µg/mL | > 100 µg/mL | > 100 µg/mL | 7.42% | 3.88% | > 100 µg/mL
O=c1oc2ccccc2c2c1N[C@H](c1ccc(Cl)cc1)C[C@H]2c1ccc2ccccc2c1 | > 100 µg/mL | > 100 µg/mL |  | > 100 µg/mL | > 100 µg/mL | > 100 µg/mL | > 100 µg/mL | > 100 µg/mL |  |  | > 100 µg/mL
Nc1cc2ccccc2oc1=O | > 100 µg/mL | > 100 µg/mL |  | > 100 µg/mL | > 100 µg/mL | > 100 µg/mL | > 100 µg/mL | > 100 µg/mL | 6.08% | 2.77% | > 100 µg/mL
Clc1ccc(COC(Cn2ccnc2)c2ccc(Cl)cc2Cl)c(Cl)c1 (stereo not given) [MICONAZOLE] |  |  |  |  | 9.37 µg/mL (≈ 22.5 µM) |  |  |  |  |  | 
Cc1c(C)c2c(c(C)c1O)CC[C@@](C)(CCC[C@H](C)CCC[C@H](C)CCCC(C)C)O2 |  |  | 47.7% |  |  |  |  |  | 86.4% | 81.7% | 
O=c1oc2ccccc2c2c1N[C@H](c1ccc(F)cc1)[C@H]1CCCO[C@@H]21 | > 100 µg/mL | > 100 µg/mL |  | > 100 µg/mL | > 100 µg/mL | > 100 µg/mL | > 100 µg/mL | > 100 µg/mL |  |  | > 100 µg/mL
CCOC(=O)C1=C(C(=O)OCC)[C@@H](c2ccc(O)c(Cl)c2)Nc2c1c1ccccc1oc2=O | > 100 µg/mL | > 100 µg/mL | 4.84% | > 100 µg/mL | > 100 µg/mL | > 100 µg/mL | > 100 µg/mL | > 100 µg/mL | 11% | 5.79% | > 100 µg/mL
CCOC(=O)C1=C(C(=O)OCC)[C@@H](c2cc(OC)ccc2O)Nc2c1c1ccccc1oc2=O | > 100 µg/mL | > 100 µg/mL | 9.58% | > 100 µg/mL | > 100 µg/mL | > 100 µg/mL | > 100 µg/mL | > 100 µg/mL | 32.1% | 20.1% | > 100 µg/mL
Cc1cc(C(C)(C)C)c(O)c(C(C)(C)C)c1 |  |  | 39.8% |  |  |  |  |  | 78.5% | 68.5% | 
O=c1oc2ccccc2c2c1N[C@H](c1ccccc1)[C@H]1CCCO[C@@H]21 | > 100 µg/mL | > 100 µg/mL |  | > 100 µg/mL | > 100 µg/mL | > 100 µg/mL | > 100 µg/mL | > 100 µg/mL |  |  | > 100 µg/mL
CC(C)OC(=O)N1c2c(c(=O)oc3ccccc23)N[C@H](c2ccc(O)c(Cl)c2)N1C(=O)OC(C)C | > 100 µg/mL | > 100 µg/mL | 10.8% | > 100 µg/mL | > 100 µg/mL | > 100 µg/mL | > 100 µg/mL | > 100 µg/mL | 31.1% | 21% | > 100 µg/mL
COc1cc(OC)cc([C@@H]2C[C@@H](c3ccc4ccccc4c3)c3c(c(=O)oc4ccccc34)N2)c1 | > 100 µg/mL | > 100 µg/mL |  | > 100 µg/mL | > 100 µg/mL | > 100 µg/mL | > 100 µg/mL | > 100 µg/mL |  |  | > 100 µg/mL
CC(C)OC(=O)N1c2c(c(=O)oc3ccccc23)N[C@H](c2ccc(C(F)(F)F)cc2)N1C(=O)OC(C)C | > 100 µg/mL | > 100 µg/mL |  | > 100 µg/mL | > 100 µg/mL | > 100 µg/mL | > 100 µg/mL | > 100 µg/mL | 6.8% | 1.06% | > 100 µg/mL

— ChEMBL document CHEMBL3856262, “A diastereoselective synthesis of tetrahydro- and dihydro-pyrido[2,3-c]coumarin derivatives via a one-pot three-component Povarov reaction catalyzed by bismuth(III) chloride” (2016)
